The results in this text go back to patent US20230338347A1, “New Use of Inhibitors of the Notch Signalling Pathway” (Cellestia Biotech AG, priority 2020, published 2023).

Common to all, as to assay type: in vivo, human
In one data set the test system is NOTCH target genes. Description: NOTCH target gene expression in hair follicles of Phase 1 patients (Nanostring). The following applies: several NOTCH target genes, starting at Cycle 2 day 1. The source says:
Hair follicles were obtained at pre-defined time points to measure changes in NOTCH target genes expression by 6-(4-Tert-Butylphenoxy)Pyridin-3-Amine treatment. NOTCH target gene down-regulation in hair follicles has been reported to be a robust and indicative biomarker that correlates with both clinical efficacy and the incidence of DLTs (Tanis K Q, et al. Clin Pharmacol Ther 2016; 99(4):370-80; Cook N, et al. BJC 2018; 118(6):793-801).
Between 5 to 10 hairs were plucked to extract the complete and undamaged hairbulb (full hair follicle), and processed as described in Camidge D R, et al. Br J Cancer 2005; 92:1837-41 and Bradley B J, et al. Mol EcolNotes 2005; 5:961-4. RNA concentration was measured by Qubit (RNAHighSensitivity), and RNA integrity was evaluated on a RNA 6000 Pico chip. RNA samples were tested for gene expression profiling on a Nanostring platform.
Table 1: NOTCH target down regulation in hair follicles and blood cells from Phase 1 patients. Target gene down regulation (CCND3, cyclin-D3; HES1, Hairy and enhance of split-1; HES4, Hairy and enhance of split-4; HESS, Hairy and enhance of split-5; HEY1, hes related family bHLH transcription factor with YRPW motif1; HEY2; hes related family bHLH transcription factor with YRPW motif 2; HEYL, hes-related family bHLH transcription factor with YRPW motif-like; IL7R-α, Interleukin-7 receptor subunit alpha; NOTCH1; NOTCH2; NRARP (NOTCH Regulated Ankyrin Repeat Protein): […]

Data set [1] relates to adenoid cystic carcinoma (ACC). As to the kind of experiment: Phase I/IIA study: preliminary clinical efficacy (best response, disease control rate). The following applies: for Disease control rate (CR, PR or SD / patients treated): 19 ACC patients. The source says: Each lane represents one patient and the length of the lane represents the duration of treatment. […] Disease control rate of 19 patients with adenoid cystic carcinoma at 8 weeks and 20 weeks was 79% and 58%, respectively (calculated as number of patients with complete or partial response, or stable disease divided by the number of patients with that indication treated). Abbreviations: SD, stable disease; PD, progressive disease; NA, not applicable).
The primary outcome measures for this study are: • Part A (Escalation): Dose limiting toxicities (DLT) • Part B (Expansion): Best overall response according to the respective tumour assessment criteria for the different cancer indications.
The Notch status of the other patients is under investigation. Disease control rate (DCR) of 19 ACC patients at 8 weeks and 20 weeks was 79% and 58%, respectively (DCR defined as number of patients with CR, PR, or SD divided by the number of patients treated).

The nature of data set [2]: Phase I/IIA study: pharmacokinetics after oral administration. The text has this:
This […] study is an ongoing first-in-human, open-label study investigating the safety, tolerability, pharmacokinetics (PK), pharmacodynamics (PD) and preliminary efficacy of the pan-NOTCH inhibitor 6-(4-Tert-Butylphenoxy)Pyridin-3-Amine in adult patients with locally advanced or metastatic solid tumours or hematologic malignancies.
The study is designed as an open label, non-randomised, uncontrolled […] dose escalation study with expansion cohorts of 6-(4-Tert-Butylphenoxy)Pyridin-3-Amine administered orally on a once-daily schedule, based on a 28-day treatment cycle. The dosing will be 15, 30, 60, 120, 170, 250, 400, or 600 mg of the 6-(4-Tert-Butylphenoxy)Pyridin-3-Amine monohydrochloride salt or higher per day or alternatively 20, 40, 60, 120, 170, 250, 400, or 600 mg of the 6-(4-Tert-Butylphenoxy)Pyridin-3-Amine monohydrochloride salt or higher per day. Dosing of 15, 30, 60, 120, 170, 250, 400, or 600 mg of the 6-(4-Tert-Butylphenoxy)Pyridin-3-Amine monohydrochloride salt corresponds to dosing of 13, 26, 52, 104, 148, 217, 348, or 522 mg of 6-(4-Tert-Butylphenoxy)Pyridin-3-Amine (free base). Dosing of 20, 40, 60, 120, 170, 250, 400, or 600 mg of the 6-(4-Tert-Butylphenoxy)Pyridin-3-Amine monohydrochloride salt corresponds to dosing of 17, 35, 52, 104, 148, 217, 348, or 522 mg of 6-(4-Tert-Butylphenoxy)Pyridin-3-Amine (free base). For this study, 6-(4-Tert-Butylphenoxy)Pyridin-3-Amine monohydrochloride salt was formulated into a capsule having a drug load of 5, 10, 20, 50 and 100 mg, respectively intended to be administered orally. • Patients will meet the following criteria:
6-(4-Tert-Butylphenoxy)Pyridin-3-Amine is rapidly absorbed after oral administration and reaches Cmax within 1 to 2 hours of dosing. […] The elimination half-life is approximately 20 hours and 6-(4-Tert-Butylphenoxy)Pyridin-3-Amine accumulates about 2-fold with repeated daily administration.

For data set [3], the system named is Notch-activated relapsed and treatment refractory T-ALL. Description: Compassionate use in a NOTCH positive relapsed refractory T-ALL patient: clinical response. The following applies: free base once daily 300 to 400 to 500 mg. The protocol: In a compassionate use program, a patient with Notch-activated relapsed and treatment refractory T-ALL was treated with 6-(4-Tert-Butylphenoxy)Pyridin-3-Amine (free base) once daily starting with 300 mg, increased to 400 mg, then 500 mg in addition to their ongoing anti-cancer treatment. Dose escalation was done every 3 days to reach the target dose 500 mg.

The half-life is the time needed for the level to fall by half in the phase considered. Turning to `CC(C)(C)c1ccc(Oc2ccc(N)cn2)cc1` [6-(4-Tert-Butylphenoxy)Pyridin-3-Amine], the “average NOTCH target gene downregulation compared to baseline (inhibition)” value in the data set on NOTCH target genes is “higher than 90%”. For the same compound, in data set [1] (4 of them with Notch activating mutation), the “number of ACC patients with radiologically confirmed stable disease” value is listed as “Ten”. Moreover, the “Disease control rate (CR, PR or SD / patients treated)” value in data set [1] (at 8 weeks) is recorded as 79%. The “Disease control rate (CR, PR or SD / patients treated)” value in data set [1] (at 20 weeks) is reported as 58%. For the same compound, in data set [1] (at doses showing target engagement), the best response result is given as “durable stable disease”. Further, the “time to steady state concentrations” value in data set [2] (daily dosing) is “within one week”. The Tmax in data set [2] (human, plasma, after oral administration, read-out: time to reach Cmax) is 1 to 2 h. The half-life in data set [2] (human, plasma, oral, read-out: elimination half-life (converted)) is approximately 20 h. In addition, the “accumulation with repeated daily administration” value in data set [2] (oral, daily) is “about 2 fold”. In data set [2] (oral, dose range tested), the “plasma exposure versus dose” value is on record as “increases with increasing doses” and the saturation of absorption result was “no signs of saturated absorption”. For the same compound, in data set [3], the “time to complete remission after starting dosing” value is on record as not above 1 week. Moreover, the clinical response entry in data set [3] (added to ongoing anti-cancer treatment) was “complete remission”.
